According to patent publication US6403618B1, “Agent and method for controlling angiogenesis” (Novactyl, Inc., priority 2000, dated 2002):

Experiments:
[1] = system: LoVo cells; assay: Effect of different doses of fusaric acid on total cell protein; format: cell-based
Procedure: (§1) In initial experiments to examine the effects of fusaric acid on cell growth and viability, WI-38 and LoVo cells were incubated for 24 to 72 hours in medium with or without various doses of fusaric acid (0.1-1 mM). The growth of both WI-38 and LoVo cells was inhibited by 500 μM fusaric acid in a time and dose dependent manner, as shown below in Table 2.

[2] = system: WI-38 cells; assay: as above; format: cell-based; settings: WI-38, 1 mM
Procedure: as §1

[3] = system: WI-38 cells; assay: Effect of fusaric acid on growth (cell number); format: cell-based
Source text: The remaining cells were spread on the substratum in normal manner without any visible mitosis for 4 days after removal of the drug.

[4] = system: colon carcinoma LoVo cells; assay: Effect of fusaric acid on growth (cell number); format: cell-based
Procedure: After 30 hours of treatment with 500 μM fusaric acid, there was a prominent decrease in cell number. DNA synthesis was completely (100%) inhibited by 24 hours. When treated with 500 μM fusaric acid, the majority of the LoVo cells acquired a rounded morphology by 48 hours.
These floating cells were not viable. […] However, after 100 hours, an increase in cell number was noted after 25 additional hours.

[5] = system: human breast adenocarcinoma MDA-468 cells; assay: Effect of fusaric acid on growth (cell number); format: cell-based
Procedure: (§2) After 12-24 hours of treatment with 500 μM fusaric acid, there was no further increase in cell number. […] These floating cells were not viable. Within 30 hours of treatment there was a 65% decrease in cell number. […] After 96 hours, less than 10% of the original population remained attached to the dish and no change in cell number was noted after one additional week.

[6] = system: WI-38 cells; assay: Viability by trypan blue dye exclusion; format: cell-based; settings: 500 μM
Procedure: To examine WI-38 cell viability in greater detail, the effects of fusaric acid were studied in logarithmically growing and contact inhibited confluent cells (Tables 2 and 3). In logarithmically growing WI-38 cells approximately 76% of the cells were viable after 30 hours of treatment with fusaric acid. When the cells were treated for 78 hours, only 26% of the cell population survived the pronounced cytotoxic actions of fusaric acid.

[7] = system: LoVo cells; assay: Viability by trypan blue dye exclusion; format: cell-based; settings: 500 μM
Procedure: As in the case of WI-38, LoVo cell viability after fusaric acid treatment was investigated in logarithmically growing and confluent cells, as shown in Tables 2 and 3. In logarithmically growing LoVo cells, approximately 38% of the attached cells were viable after 30 hours of treatment with fusaric acid. When the cells were treated for 78 hours, only 4.5% of the cell population survived the pronounced cytotoxic actions of fusaric acid. […] Thus, LoVo cells are much more sensitive to the cytotoxic actions of fusaric acid in both growing and confluent population of cells in comparison to normal WI-38 cells.

[8] = system: KB cells; assay: Viability by trypan blue dye exclusion; format: cell-based, human; settings: confluent cells, 500 μM, 48 h
Procedure: To examine KB cell viability in greater detail, the effects of fusaric acid were studied in logarithmically growing and confluent cells. In logarithmically growing KB cells 70% of the cells were viable after 48 hours in 500 μM fusaric acid. […] Thus, in contrast to LoVo cells, a significant proportion of the population of growing (70%) cells and virtually all (95%) of confluent KB cells resisted the pronounced cytotoxic action of fusaric acid (See Tables 3 and 4, above).

[9] = system: MDA-468 cells; format: cell-based, human
Procedure: As in the case of WI-38, MDA-468 cell viability after fusaric acid treatment was investigated in logarithmically growing and confluent cells. In logarithmically growing MDA-468 cells, less than 20% of the attached cells were viable after 30 hours of treatment with fusaric acid. When the cells were treated for 48 hours, only 0.1% of the cell population survived the pronounced cytotoxic actions of fusaric acid. […] Thus, MDA-468 cells are extremely sensitive to the cytotoxic actions of fusaric acid in both growing and confluent population of cells in comparison to normal WI-38 lines studied.

[10] = system: MDA-468 cells; assay: DNA synthesis; format: cell-based; settings: Homo sapiens, by 24 hr, read-out: DNA synthesis inhibited
Procedure: as §2

[11] = system: Prostatic adenocarcinoma cell line; assay: Viability of other human carcinoma cell types; format: cell-based; settings: 48 hours of treatment
Procedure: (§3) As in previous examples, the following human cell lines were inhibited by similar concentrations of fusaric acid: Prostatic adenocarcinoma, skin carcinoma, colon carcinoma, liver adenocarcinoma and lung adenocarcinoma. For all these cell types, cell viability decreased by approximately 60% after 48 hours of treatment with fusaric acid.

[12] = system: colon carcinoma cell line; assay: Viability of other human carcinoma cell types; format: cell-based; settings: 48 hours of treatment
Procedure: as §3

[13] = system: liver adenocarcinoma cell line; assay: Viability of other human carcinoma cell types; format: cell-based; settings: 48 hours of treatment
Procedure: as §3

[14] = system: lung adenocarcinoma cell line; assay: Viability of other human carcinoma cell types; format: cell-based; settings: 48 hours of treatment
Procedure: as §3

[15] = system: skin carcinoma cell line; assay: Viability of other human carcinoma cell types; format: cell-based; settings: 48 hours of treatment
Procedure: as §3

[16] = 500 μM, within 30 hours of treatment
[17] = logarithmic growth, 30 h, listed as Fusaric Acid

CCCCc1ccc(C(=O)O)nc1 [fusaric acid]
cytotoxicity ([1]; 1 mM fusaric acid, by 24 hours): extensive cytotoxicity | Monolayer Protein ([1]; LoVo, 0.5 mM, 48 h): 90 μg/dish | Monolayer Protein ([2]; 24 h): 236 μg/dish | Monolayer Protein ([2]; 48 h): 202 μg/dish | decrease in cell number ([3]; 30 hours with 500 μM, then 4 days in normal media): 30% | cells survived ([3]; after removal of fusaric acid, 500 μM for 30 hours): > 95% | decrease in cell number [4, 16]: 60% | decline of cell population after removal of the drug ([4]; removal after 30 hours, up to approximately 100 hours): ~80% | decrease in cell number [5, 16]: 65% | original population remaining attached to the dish ([5]; drug removed after 30 hours, after 96 hours): less than 10% | % Survival ([6]; confluent cells, 48 h): 100% | % Survival [6, 17]: 76.4% | % Survival ([6]; logarithmic growth, 78 h): 26% | % Survival ([7]; confluent cells, 48 h): 40% | % Survival ([7]; logarithmic growth, 30 h): approximately 38% | % Survival [7, 17]: 38.5% | % Survival ([7]; logarithmic growth, 78 h): 4.5% | % Survival [8]: 95% | cells survived ([9]; confluent cells, 500 μM, 48 hours): 10% | attached cells viable ([9]; logarithmic growth, 30 hours): less than 20% | cell population survived ([9]; logarithmic growth, 48 hours): 0.1% | inhibition at 500 µM [10]: 100% | cell viability decreased [11]: approximately 60% | cell viability decreased [12]: approximately 60% | cell viability decreased [13]: approximately 60% | cell viability decreased [14]: approximately 60% | cell viability decreased [15]: approximately 60%
